Measurements reported in ChEMBL document CHEMBL1914353, “Utilization of halogen bond in lead optimization: a case study of rational design of potent phosphodiesterase type 5 (PDE5) inhibitors” (J Med Chem, 2011).

Experiment: Inhibition of rabbit platelet PDE5 using [3H]cGMP as substrate after 30 mins by scintillation proximity assay
Design: species or system Oryctolagus cuniculus
For `CCCOc1ccc(S(=O)(=O)N2CCN(C)CC2)cc1-c1nc(CC)cc(=O)[nH]1`, the IC50 was 51.8 nM. `CCCOc1ccc(S(=O)(=O)N2CCN(C)CC2)cc1-c1nc(CC)c(I)c(=O)[nH]1` gave an IC50 of 7.2 nM. In the case of `CCCc1nn(C)c2c(=O)[nH]c(-c3cc(S(=O)(=O)N4CCN(C)CC4)ccc3OCC)nc12`, the IC50 is reported as 3.3 nM.
